Results published in patent US8183235B2, “Dihydronaphthalene compound and use thereof” (Tokyo University of Science Educational Foundation …, priority 2007, dated 2012).
Counter-ions that a name gives are not always drawn. Residues, ends and D or L forms follow the SMILES beside them. *: point of attachment. Cbz = O=C(OCc1ccccc1)*

How the values were obtained:
[1] = target: 20S proteasome chymotrypsin-like activity (Homo sapiens, UniProt P28074); test: Chymotrypsin-like activity inhibition test; assay type: biochemical; details: for remaining activity at 10 µM: read-out: % Control, Chymotrypsin-like Activity
[2] = test system: central nervous system cancer cells; test: Proliferation inhibition, central nervous system cancer cell panel (summary); assay type: cell-based; details: read-out: cytotoxic activity (extent of effective concentration)
Description: (§1) As a comparison for the inhibition activity, tamoxifen citrate (TAM) was used. In the Table, the concentration units are μM.

20S proteasome = 20S proteasome (Homo sapiens, UniProt P28072+P28074+Q99436); test: Proteasome inhibition activity, overall judgement; assay type: biochemical; details: for The evaluations (proteasome inhibition activity): overall judgement positive/negative; for Proteasome selectivity: judgement
MKN74 = test: Proliferation inhibition of stomach cancer cells; assay type: cell-based; details: Homo sapiens, MKN-74
Protocol: as §1
(§2) In the same way as in Example 9, the proliferation inhibition activity of naforidaifens A to G was measured with respect to six types of stomach cancer cells (St-4, MKN1, MKN7, MKN28, MKN45, MKN74). In the Table, the concentration units are μM.

MKN28 = test: Proliferation inhibition of stomach cancer cells; assay type: cell-based; details: Homo sapiens, MKN-28
Protocol: as §1, §2

St-4 = test: Proliferation inhibition of stomach cancer cells; assay type: cell-based; details: Homo sapiens
Protocol: as §1, §2

MKN7 = test: Proliferation inhibition of stomach cancer cells; assay type: cell-based; details: Homo sapiens, MKN-7
Protocol: as §1, §2

MKN45 = test: Proliferation inhibition of stomach cancer cells; assay type: cell-based; details: Homo sapiens, MKN-45
Protocol: as §1, §2

MKN1 = test: Proliferation inhibition of stomach cancer cells; assay type: cell-based; details: Homo sapiens, MKN-1
Protocol: as §1, §2

HT-29 = test: Proliferation inhibition of colon cancer cells; assay type: cell-based; details: Homo sapiens
Protocol: as §1
(§3) In the same way as in Example 9, the proliferation inhibition activity of naforidaifens A to G was measured with respect to five types of colon cancer cells (HCC2998, KM-12, HT-29, HCT-15, and HCT-116). In the Table, the concentration units are μM.

HCC2998 = test: Proliferation inhibition of colon cancer cells; assay type: cell-based; details: Homo sapiens, HCC 2998
Protocol: as §1, §3

KM-12 = test: Proliferation inhibition of colon cancer cells; assay type: cell-based; details: Homo sapiens, KM12
Protocol: as §1, §3

HCT-15 = test: Proliferation inhibition of colon cancer cells; assay type: cell-based; details: Homo sapiens
Protocol: as §1, §3

HCT-116 = test: Proliferation inhibition of colon cancer cells; assay type: cell-based; details: Homo sapiens
Protocol: as §1, §3

SF-295 = test: Inhibition of propagation of central nervous system cancer cells (sulforhodamin B); assay type: cell-based; details: Homo sapiens, 48 h; SF-295, two days of cultivation
Description: as §1

U251 = test: as above; assay type: cell-based; details: Homo sapiens, U-251, 48 h; U251, two days of cultivation
Description: as §1

SF-268 = test: as above; assay type: cell-based; details: Homo sapiens, 48 h; SF-268, two days of cultivation
Description: as §1

SNB-78 = test: as above; assay type: cell-based; details: Homo sapiens, 48 h; SNB-78, two days of cultivation
Description: as §1

SNB-75 = test: as above; assay type: cell-based; details: Homo sapiens, 48 h; SNB-75, two days of cultivation
Description: as §1

SF-539 = test: as above; assay type: cell-based; details: Homo sapiens, 48 h; SF-539, two days of cultivation
Description: as §1

SK-OV-3 = test: Proliferation inhibition of ovarian cancer cells; assay type: cell-based; details: Homo sapiens
Protocol: as §1
(§4) In the same way as in Example 9, the proliferation inhibition activity of naforidaifens A to G was measured with respect to five types of ovarian cancer cells (OVCAR-3, OVCAR-4, OVCAR-5, OVCAR-8, AND SK-OV-3). In the Table, the concentration units are μM.

OVCAR-5 = test: Proliferation inhibition of ovarian cancer cells; assay type: cell-based; details: Homo sapiens
Protocol: as §1, §4

OVCAR-3 = test: Proliferation inhibition of ovarian cancer cells; assay type: cell-based; details: Homo sapiens
Protocol: as §1, §4

OVCAR-4 = test: Proliferation inhibition of ovarian cancer cells; assay type: cell-based; details: Homo sapiens
Protocol: as §1, §4

OVCAR-8 = test: Proliferation inhibition of ovarian cancer cells; assay type: cell-based; details: Homo sapiens
Protocol: as §1, §4

Cathepsin B = test: Cathepsin-like activity inhibition test; assay type: biochemical
Protocol: Cathepsin-Like Activity Inhibition Test
(§5) 1) To 20S proteasome, naforidaifen B adjusted to a concentration of 10 μM was added, and incubated at 30° C. for 10 min.
2) To the above test system, fluorescence labeled cathepsin including a 20S proteasome segmenting sequence was added, and reacted for 1 hr at 30° C.
(§6) 3) The fluorescent substance (AMC) released by the above reaction was excited with 360 nm light and assayed with 460 nm light.
(§7) 4) A test system to which naforidaifen B was not added was measured in the same way as (1) to (3) above, and the enzyme activity for the case of using naforidaifen B was measured.
(§8) 5) Stepwise diluted solutions containing naforidaifen B were prepared, and after carrying out the same evaluations as in (1) to (4), the 50% inhibition concentration (IC50) was determined.
6) As a positive control of the enzyme activity, the known proteasome inhibitor Clasto-Lactacystin β-Lactone (Lactacystin activator) and MGI32 were evaluated with the steps (1) to (5).

[3] = target: 20S proteasome trypsin-like activity (Homo sapiens, UniProt Q99436); test: Trypsin-like activity inhibition test; assay type: biochemical; details: for remaining activity at 10 µM: read-out: % Control, Trypsin-like Activity
[4] = target: 20S proteasome caspase-like activity (Homo sapiens, UniProt P28072); test: Caspase-like activity inhibition test; assay type: biochemical; details: for remaining activity at 10 µM: read-out: % Control, Caspase-like Activity
α-chymotrypsin = α-chymotrypsin (Bos taurus, UniProt P00766); test: α-Chymotrypsin-like activity inhibition test; assay type: biochemical
Protocol: α-Chymotrypsin-Like Activity Inhibition Test
as §5
2) To the above test system, fluorescence labeled α-chymotrypsin including a 20S proteasome segmenting sequence was added, and reacted for 1 hr at 30° C.
as §6, §7, §8
6) As a positive control of the enzyme activity, the well-known proteasome inhibitor Clasto-Lactacystin β-Lactone (Lactacystin activator) and MGI32 were evaluated with the steps (1) to (5).

SMILES | IC50 [1] | remaining activity at 10 µM [1] | GI50 (MKN74) | GI50 (MKN28) | GI50 (St-4) | GI50 (MKN7) | GI50 (MKN45) | GI50 (MKN1) | GI50 (HT-29) | GI50 (HCC2998) | GI50 (KM-12) | GI50 (HCT-15) | GI50 (HCT-116) | GI50 (SF-295) | GI50 (U251) | GI50 (SF-268) | GI50 (SNB-78) | GI50 (SNB-75) | GI50 (SF-539) | GI50 (SK-OV-3) | also measured
CC(C)[C@H](O)[C@@]12NC(=O)[C@H](C)[C@@H]1OC2=O [Clasto-Lactacystin β-Lactone, reference compound] | 39 nM | – | – | – | – | – | – | – | – | – | – | – | – | – | – | – | – | – | – | – | % Control, Chymotrypsin-like Activity ([1]; Concentration 10 μM): 0%
CC(C)C[C@@H](C=O)NC(=O)[C@H](CC(C)C)NC(=O)[C@H](CC(C)C)NC(=O)OCc1ccccc1 [MG132, reference compound] (Cbz-Leu-Leu-Leu-aldehyde) | – | 0% | – | – | – | – | – | – | – | – | – | – | – | – | – | – | – | – | – | – | –
CN(C)CCOc1ccc(C2=C(c3ccccc3)CCc3cc(OCCN(C)C)ccc32)cc1 [Naforidaifen A, 4-[4-(2-dimethylamino-1-yl-ethoxy)phenyl]-7-(2-dimethylamino-1-yl-ethoxy)-3-phenyl-1,2-dihydronaphthalene] | > 10000 nM | 99.5% | 1410 nM | 1820 nM | 1480 nM | 1580 nM | 1740 nM | 1480 nM | 759 nM | 1480 nM | 1860 nM | 1660 nM | 1100 nM | 1740 nM | 1450 nM | 1950 nM | 1820 nM | 1480 nM | 1550 nM | 2290 nM | IC50 [2]: 1400 to 1900 nM; The evaluations (proteasome inhibition activity) (20S proteasome): negative; GI50 (OVCAR-5): 1550 nM; GI50 (OVCAR-3): 1620 nM; GI50 (OVCAR-4): 2140 nM; GI50 (OVCAR-8): 2880 nM
c1ccc(C2=C(c3ccc(OCCN4CCCC4)cc3)c3ccc(OCCN4CCCC4)cc3CC2)cc1 [Naforidaifen B, 4-[4-(2-pyrrolidine-1-yl-ethoxy)phenyl]-7-(2-pyrrolidine-1-yl-ethoxy)-3-phenyl-1,2-dihydronaphthalene] | 4600 nM | 27.1% | 1660 nM | 2190 nM | 1860 nM | 1580 nM | 1660 nM | 1480 nM | 1450 nM | 1580 nM | 1950 nM | 2340 nM | 1260 nM | 1910 nM | 1580 nM | 2090 nM | 1910 nM | 2000 nM | 1860 nM | 3090 nM | Cathepsin B inhibition (Cathepsin B): none; IC50 [3]: 8600 nM; remaining activity at 10 µM [3]: 35.3%; IC50 [4]: 2500 nM; remaining activity at 10 µM [4]: 16.5%; Proteasome selectivity (20S proteasome): present; The evaluations (proteasome inhibition activity) (20S proteasome): positive; α-chymotrypsin inhibition (α-chymotrypsin): none; GI50 (OVCAR-5): 1620 nM; GI50 (OVCAR-3): 1580 nM; GI50 (OVCAR-4): 1320 nM; GI50 (OVCAR-8): 3800 nM
c1ccc(C2=C(c3ccc(OCCN4CCOCC4)cc3)c3ccc(OCCN4CCOCC4)cc3CC2)cc1 [Naforidaifen D, 4-[4-(2-morpholine-1-yl-ethoxy)phenyl]-7-(2-morpholine-1-yl-ethoxy)-3-phenyl-1,2-dihydronaphthalene] | 6800 nM | 22.1% | 19500 nM | 45700 nM | 15500 nM | 19500 nM | 16600 nM | 18600 nM | 12600 nM | 17800 nM | 20000 nM | 19100 nM | 14800 nM | 14500 nM | 15500 nM | 38900 nM | 28800 nM | 20400 nM | 15800 nM | 15500 nM | Cathepsin B inhibition (Cathepsin B): none; IC50 [3]: 4100 nM; remaining activity at 10 µM [3]: 21.6%; IC50 [4]: 4600 nM; remaining activity at 10 µM [4]: 21.9%; Proteasome selectivity (20S proteasome): present; The evaluations (proteasome inhibition activity) (20S proteasome): positive; α-chymotrypsin inhibition (α-chymotrypsin): none; GI50 (OVCAR-5): 6920 nM; GI50 (OVCAR-3): 17400 nM; GI50 (OVCAR-4): 18600 nM; GI50 (OVCAR-8): 25700 nM
CCN(CC)CCOc1ccc(C2=C(c3ccccc3)CCc3cc(OCCN(CC)CC)ccc32)cc1 [Naforidaifen E, 4-[4-(2-diethylamino-1-yl-ethoxy)phenyl]-7-(2-diethylamino-1-yl-ethoxy)-3-phenyl-1,2-dihydronaphthalene] | 9900 nM | 49.6% | 1230 nM | 1820 nM | 1550 nM | 1410 nM | 1660 nM | 1410 nM | 813 nM | 1580 nM | 1950 nM | 1580 nM | 1200 nM | 1820 nM | 1510 nM | 1820 nM | 1620 nM | 1510 nM | 1860 nM | 1910 nM | Cathepsin B inhibition (Cathepsin B): none; IC50 [3]: > 10000 nM; remaining activity at 10 µM [3]: 162%; IC50 [4]: > 10000 nM; remaining activity at 10 µM [4]: 54.6%; Proteasome selectivity (20S proteasome): present; The evaluations (proteasome inhibition activity) (20S proteasome): positive; α-chymotrypsin inhibition (α-chymotrypsin): none; GI50 (OVCAR-5): 1580 nM; GI50 (OVCAR-3): 1860 nM; GI50 (OVCAR-4): 2190 nM; GI50 (OVCAR-8): 2450 nM
CC/C(=C(\c1ccccc1)c1ccc(OCCN(C)C)cc1)c1ccccc1 [TAM, tamoxifen citrate, reference compound] | – | – | 3240 nM | 6310 nM | 6310 nM | 5250 nM | 8320 nM | 10200 nM | 2340 nM | 2950 nM | 3550 nM | 5890 nM | 7240 nM | 4170 nM | 7760 nM | 12000 nM | 13500 nM | 5010 nM | 3720 nM | 20000 nM | GI50 (OVCAR-5): 4370 nM; GI50 (OVCAR-3): 4680 nM; GI50 (OVCAR-4): 6030 nM; GI50 (OVCAR-8): 11200 nM
